Test results as given in patent US10251395B2, “Substituted furano-/thienocycloalkylamino-2-pyrimidine derivatives and use thereof for controlling undesired plant growth” (Bayer CropScience Aktiengesellschaft, priority 2015, dated 2019).

Experiments:
Type in all cases: in vivo
[1] = system: Veronica persica; assay: Post-emergence herbicidal effect; conditions: assessed visually after about 3 weeks vs untreated controls
Outline: (§1)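 Ratings are visual percentages taken around 3 weeks after treatment, compared with untreated plants. Treatment consisted of an aqueous spray of WP or EC formulations, with 0.2% wetting agent, onto one-leaf-stage weeds raised from seed in sandy loam.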

[2] = system: Matricaria inodora; assay: Post-emergence herbicidal effect; conditions: assessed visually after about 3 weeks vs untreated controls
Outline: as §1

[3] = system: Stellaria media; assay: Post-emergence herbicidal effect; conditions: assessed visually after about 3 weeks vs untreated controls
Outline: as §1

[4] = system: Setaria viridis; assay: Post-emergence herbicidal effect; conditions: assessed visually after about 3 weeks vs untreated controls
Outline: as §1

[5] = system: Echinochloa crus-galli; assay: Post-emergence herbicidal effect; conditions: 320 g/ha, assessed visually after about 3 weeks vs untreated controls
Outline: as §1

[6] = system: Amaranthus retroflexus; assay: Post-emergence herbicidal effect; conditions: assessed visually after about 3 weeks vs untreated controls
Outline: as §1

[7] = system: Viola tricolor; assay: Post-emergence herbicidal effect; conditions: assessed visually after about 3 weeks vs untreated controls
Outline: as §1

[8] = system: Veronica persica; assay: Pre-emergence herbicidal effect; conditions: scored visually after 3 weeks
Outline: (§2)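 Seeds in sandy loam were covered with soil and treated pre-emergence with WP or EC formulations applied as aqueous spray with 0.2% wetting agent. Percent damage was scored visually after 3 weeks relative to untreated controls.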

[9] = system: Matricaria inodora; assay: Pre-emergence herbicidal effect; conditions: scored visually after 3 weeks
Outline: as §2

[10] = system: Stellaria media; assay: Pre-emergence herbicidal effect; conditions: scored visually after 3 weeks
Outline: as §2

[11] = system: Polygonum convolvulus; assay: Pre-emergence herbicidal effect; conditions: scored visually after 3 weeks
Outline: as §2

[12] = system: Avena fatua; assay: Pre-emergence herbicidal effect; conditions: scored visually after 3 weeks
Outline: as §2

[13] = system: Abutilon theophrasti; assay: Pre-emergence herbicidal effect; conditions: scored visually after 3 weeks
Outline: as §2

[14] = system: Cyperus esculentus; assay: Pre-emergence herbicidal effect; conditions: scored visually after 3 weeks
Outline: as §2

[15] = system: Setaria viridis; assay: Pre-emergence herbicidal effect; conditions: scored visually after 3 weeks
Outline: as §2

[16] = system: Echinochloa crus-galli; assay: Pre-emergence herbicidal effect; conditions: scored visually after 3 weeks
Outline: as §2

[17] = system: Amaranthus retroflexus; assay: Pre-emergence herbicidal effect; conditions: scored visually after 3 weeks
Outline: as §2

[18] = system: Alopecurus myosuroides; assay: Pre-emergence herbicidal effect; conditions: scored visually after 3 weeks
Outline: as §2

[19] = system: Ipomoea purpurea; assay: Pre-emergence herbicidal effect; conditions: scored visually after 3 weeks
Outline: as §2

[20] = system: Polygonum convolvulus; assay: Post-emergence herbicidal effect; conditions: 320 g/ha, assessed visually after about 3 weeks vs untreated controls
Outline: as §1

[21] = system: Abutilon theophrasti; assay: Post-emergence herbicidal effect; conditions: assessed visually after about 3 weeks vs untreated controls
Outline: as §1

[22] = system: Alopecurus myosuroides; assay: Post-emergence herbicidal effect; conditions: 320 g/ha, assessed visually after about 3 weeks vs untreated controls
Outline: as §1

[23] = system: Ipomoea purpurea; assay: Post-emergence herbicidal effect; conditions: assessed visually after about 3 weeks vs untreated controls
Outline: as §1

[24] = system: Viola tricolor; assay: Pre-emergence herbicidal effect; conditions: scored visually after 3 weeks
Outline: as §2

Question: With `Cc1cc2c(s1)CCCC2Nc1ncc(C#N)c(N)n1` (racemic) [compound 52] as the compound, how does the “post-emergence efficacy VERPE” value ([1]; 80 g/ha) read?
Answer: The value was 90%.

Question: And the “post-emergence efficacy VERPE” value ([1]; 320 g/ha)?
Answer: Its value is 90%.

Question: And the “post-emergence efficacy MATIN” value ([2]; 80 g/ha)?
Answer: The value was 60%.

Question: What about the “post-emergence efficacy MATIN” value ([2]; 320 g/ha) of the same compound?
Answer: Its value is 60%.

Question: And the “post-emergence efficacy STEME” value ([3]; 80 g/ha)?
Answer: The value was 100%.

Question: What about the “post-emergence efficacy STEME” value ([3]; 320 g/ha) of the same compound?
Answer: The value was 100%.

Question: What about the “post-emergence efficacy SETVI” value ([4]; 80 g/ha) of the same compound?
Answer: The value was 60%.

Question: What about the “post-emergence efficacy SETVI” value ([4]; 320 g/ha) of the same compound?
Answer: Its value is 80%.

Question: And the “post-emergence efficacy ECHCG” value [5]?
Answer: Its value is 100%.

Question: And the “post-emergence efficacy AMARE” value ([6]; 80 g/ha)?
Answer: Its value is 100%.

Question: What about the “post-emergence efficacy AMARE” value ([6]; 320 g/ha) of the same compound?
Answer: The value was 100%.

Question: And the “post-emergence efficacy VIOTR” value ([7]; 80 g/ha)?
Answer: Its value is 90%.

Question: And the “post-emergence efficacy VIOTR” value ([7]; 320 g/ha)?
Answer: The value was 90%.

Question: And the “VERPE pre-emergence efficacy (herbicidal activity)” value ([8]; Dosage 80 g/ha)?
Answer: The value was 100%.

Question: And the “VERPE pre-emergence efficacy (herbicidal activity)” value ([8]; Dosage 320 g/ha)?
Answer: The value was 100%.

Question: And the “MATIN pre-emergence efficacy (herbicidal activity)” value (“MATIN pre-emergence efficacy” below) ([9]; Dosage 80 g/ha)?
Answer: Its value is 100%.

Question: And the “MATIN pre-emergence efficacy” value ([9]; Dosage 320 g/ha)?
Answer: Its value is 100%.

Question: And the “STEME pre-emergence efficacy (herbicidal activity)” value ([10]; Dosage 80 g/ha)?
Answer: Its value is 100%.

Question: What about the “STEME pre-emergence efficacy (herbicidal activity)” value ([10]; Dosage 320 g/ha) of the same compound?
Answer: Its value is 100%.

Question: And the “POLCO pre-emergence efficacy (herbicidal activity)” value (“POLCO pre-emergence efficacy” for short) ([11]; Dosage 80 g/ha)?
Answer: The value was 100%.

Question: What about the “POLCO pre-emergence efficacy” value ([11]; Dosage 320 g/ha) of the same compound?
Answer: The value was 100%.

Question: What about the “AVEFA pre-emergence efficacy (herbicidal activity)” value (from here on “AVEFA pre-emergence efficacy”) ([12]; Dosage 80 g/ha) of the same compound?
Answer: The value was 90%.

Question: What about the “AVEFA pre-emergence efficacy” value ([12]; Dosage 320 g/ha) of the same compound?
Answer: The value was 90%.

Question: What about the “ABUTH pre-emergence efficacy (herbicidal activity)” value (from here on “ABUTH pre-emergence efficacy”) ([13]; Dosage 80 g/ha) of the same compound?
Answer: Its value is 90%.

Question: And the “ABUTH pre-emergence efficacy” value ([13]; Dosage 320 g/ha)?
Answer: Its value is 100%.

Question: And the “CYPES pre-emergence efficacy (herbicidal activity)” value (from here on “CYPES pre-emergence efficacy”) ([14]; Dosage 80 g/ha)?
Answer: The value was 100%.

Question: What about the “CYPES pre-emergence efficacy” value ([14]; Dosage 320 g/ha) of the same compound?
Answer: The value was 100%.

Question: And the “SETVI pre-emergence efficacy (herbicidal activity)” value (from here on “SETVI pre-emergence efficacy”) ([15]; Dosage 80 g/ha)?
Answer: Its value is 80%.

Question: What about the “SETVI pre-emergence efficacy” value ([15]; Dosage 320 g/ha) of the same compound?
Answer: The value was 100%.

Question: What about the “ECHCG pre-emergence efficacy (herbicidal activity)” value (from here on “ECHCG pre-emergence efficacy”) ([16]; Dosage 80 g/ha) of the same compound?
Answer: Its value is 80%.

Question: What about the “ECHCG pre-emergence efficacy” value ([16]; Dosage 320 g/ha) of the same compound?
Answer: The value was 90%.

Question: And the “AMARE pre-emergence efficacy (herbicidal activity)” value (from here on “AMARE pre-emergence efficacy”) ([17]; Dosage 80 g/ha)?
Answer: The value was 100%.

Question: And the “AMARE pre-emergence efficacy” value ([17]; Dosage 320 g/ha)?
Answer: The value was 100%.

Question: What about the “ALOMY pre-emergence efficacy (herbicidal activity)” value (from here on “ALOMY pre-emergence efficacy”) ([18]; Dosage 80 g/ha) of the same compound?
Answer: The value was 70%.

Question: And the “ALOMY pre-emergence efficacy” value ([18]; Dosage 320 g/ha)?
Answer: Its value is 80%.

Question: And the “PHBPU pre-emergence efficacy (herbicidal activity)” value (from here on “PHBPU pre-emergence efficacy”) ([19]; Dosage 320 g/ha)?
Answer: The value was 100%.

Question: Which “post-emergence efficacy MATIN” value ([2]; 320 g/ha) does the source give for `Cc1cc2c(s1)CCCC2Nc1nc(N)c(Br)c(C(F)F)n1` (racemic) [compound 284] here?
Answer: The value was 80%.

Question: What about the “post-emergence efficacy STEME” value ([3]; 80 g/ha) of the same compound?
Answer: The value was 100%.

Question: And the “post-emergence efficacy STEME” value ([3]; 320 g/ha)?
Answer: The value was 100%.

Question: What about the “post-emergence efficacy POLCO” value [20] of the same compound?
Answer: The value was 100%.

Question: What about the “post-emergence efficacy ABUTH” value ([21]; 80 g/ha) of the same compound?
Answer: The value was 90%.

Question: What about the “post-emergence efficacy ABUTH” value ([21]; 320 g/ha) of the same compound?
Answer: The value was 90%.

Question: And the “post-emergence efficacy SETVI” value ([4]; 80 g/ha)?
Answer: Its value is 90%.

Question: What about the “post-emergence efficacy SETVI” value ([4]; 320 g/ha) of the same compound?
Answer: The value was 100%.

Question: What about the “post-emergence efficacy ECHCG” value [5] of the same compound?
Answer: The value was 80%.

Question: What about the “post-emergence efficacy AMARE” value ([6]; 80 g/ha) of the same compound?
Answer: The value was 80%.

Question: And the “post-emergence efficacy AMARE” value ([6]; 320 g/ha)?
Answer: Its value is 80%.

Question: What about the “post-emergence efficacy VIOTR” value ([7]; 80 g/ha) of the same compound?
Answer: The value was 60%.

Question: What about the “post-emergence efficacy VIOTR” value ([7]; 320 g/ha) of the same compound?
Answer: The value was 90%.

Question: What about the “post-emergence efficacy ALOMY” value [22] of the same compound?
Answer: Its value is 100%.

Question: And the “post-emergence efficacy PHBPU” value ([23]; 80 g/ha)?
Answer: The value was 90%.

Question: What about the “post-emergence efficacy PHBPU” value ([23]; 320 g/ha) of the same compound?
Answer: Its value is 100%.

Question: What about the “MATIN pre-emergence efficacy” value ([9]; Dosage 80 g/ha) of the same compound?
Answer: The value was 100%.

Question: What about the “MATIN pre-emergence efficacy” value ([9]; Dosage 320 g/ha) of the same compound?
Answer: Its value is 100%.

Question: What about the “POLCO pre-emergence efficacy” value ([11]; Dosage 80 g/ha) of the same compound?
Answer: Its value is 90%.

Question: What about the “POLCO pre-emergence efficacy” value ([11]; Dosage 320 g/ha) of the same compound?
Answer: The value was 100%.

Question: What about the “AVEFA pre-emergence efficacy” value ([12]; Dosage 80 g/ha) of the same compound?
Answer: The value was 50%.

Question: What about the “AVEFA pre-emergence efficacy” value ([12]; Dosage 320 g/ha) of the same compound?
Answer: Its value is 70%.

Question: And the “ABUTH pre-emergence efficacy” value ([13]; Dosage 80 g/ha)?
Answer: Its value is 20%.

Question: And the “ABUTH pre-emergence efficacy” value ([13]; Dosage 320 g/ha)?
Answer: Its value is 80%.

Question: What about the “CYPES pre-emergence efficacy” value ([14]; Dosage 80 g/ha) of the same compound?
Answer: Its value is 90%.

Question: What about the “CYPES pre-emergence efficacy” value ([14]; Dosage 320 g/ha) of the same compound?
Answer: Its value is 100%.

Question: And the “SETVI pre-emergence efficacy” value ([15]; Dosage 80 g/ha)?
Answer: The value was 100%.

Question: What about the “SETVI pre-emergence efficacy” value ([15]; Dosage 320 g/ha) of the same compound?
Answer: Its value is 100%.

Question: And the “ECHCG pre-emergence efficacy” value ([16]; Dosage 80 g/ha)?
Answer: Its value is 80%.

Question: And the “ECHCG pre-emergence efficacy” value ([16]; Dosage 320 g/ha)?
Answer: The value was 100%.

Question: And the “AMARE pre-emergence efficacy” value ([17]; Dosage 80 g/ha)?
Answer: Its value is 100%.

Question: What about the “AMARE pre-emergence efficacy” value ([17]; Dosage 320 g/ha) of the same compound?
Answer: The value was 100%.

Question: What about the “VIOTR pre-emergence efficacy (herbicidal activity)” value ([24]; Dosage 80 g/ha) of the same compound?
Answer: Its value is 100%.

Question: And the “VIOTR pre-emergence efficacy (herbicidal activity)” value ([24]; Dosage 320 g/ha)?
Answer: Its value is 100%.

Question: And the “ALOMY pre-emergence efficacy” value ([18]; Dosage 80 g/ha)?
Answer: Its value is 70%.

Question: And the “ALOMY pre-emergence efficacy” value ([18]; Dosage 320 g/ha)?
Answer: The value was 80%.

Question: What about the “PHBPU pre-emergence efficacy” value ([19]; Dosage 80 g/ha) of the same compound?
Answer: Its value is 50%.

Question: What about the “PHBPU pre-emergence efficacy” value ([19]; Dosage 320 g/ha) of the same compound?
Answer: The value was 50%.
